{"source": "patent US11091429B2", "about": "“Organic compounds” (Givaudan SA, priority 2012, dated 2021)", "key": {"[1]": {"test": "Tasting in soy sauce", "experimental": "(§1) The following formulations were prepared and tasted by trained panelists.\nSalt level pure product between 5-40%\nSalt level in application 0.3-1.0%\n(§2) Samples were prepared and evaluated by expert tasters. Tasters were asked to describe the samples focusing on authentic taste, mouthfeel, fullness, salty-ness, salivation, umami, sweetness, juiciness, richness, long lastingness and fattiness.\nTest on Kikkoman Soy Sauce Low Salt\nBase is Kikkoman soy sauce\n(§3) Samples were prepared and evaluated by expert tasters. Tasters were asked to describe the samples focusing on authentic taste, mouthfeel, fullness, salivation, salty-ness, umami, sweetness, juiciness, richness, long lastingness and fattiness."}, "[2]": {"test": "Test in 3 in 1 coffee", "settings": "1 ppm, 3-in-1 coffee beverage, sucrose 13.2%, creamer (2.1% fat)", "experimental": "In a 3 in 1 Coffee beverage from Nestle (market product) sweetened with sucrose 13.2% and containing creamer (2.1% fat) C18:2-gaba was added.\nSamples were evaluated by expert tasters. Tasters were asked to describe the samples focusing on authentic taste, mouthfeel, fullness, salivation, sweetness, juiciness, richness, long lastingness and fattiness.\nBase is 3-in-1 Coffee beverage (market product) sweetened with sucrose and containing creamer with fat"}, "[3]": {"test": "Tasting in mango still beverage, 6% clear mango juice", "settings": "1 ppm; 6% clear mango juice (full juice)", "experimental": "Mango Flavoured Still Beverage Containing Different Levels of Juice,\nIn a Mango flavoured still beverage, sweetened with 8% sucrose and containing 0.1% citric acid and 1%, 4% and 6% clear mango juice flavoured with a proprietary Mango flavour @ 0.05%, C18:2-gaba and C18:2-Pro were added, as such (separate) and in combination.\nAll samples were evaluated by expert tasters. Tasters were asked to describe the samples focusing on authentic taste, juicy mouthfeel, enhancement, richness, juiciness, long lastingness, salivation, sweetness.\nIn a Mango-flavoured still beverage, sweetened with 8% sucrose & containing 0.1% citric acid and 6% clear mango juice flavoured with Mango flavour@0.05%, C18:2-gaba and C18:2-Pro were added, as such (separate) and in combination.\nBase is water, 8% sucrose, 0.1% citric acid, 6% clear mango juice (full juice), flavoured with Mango flavor, dosed at 0.05%."}, "[4]": {"test": "Test in peach flavoured drink", "settings": "1 ppm; water, 8% sugar, 0.1% citric acid, peach flavour 0.05%", "experimental": "as §2\nTest in Peach Flavoured Drink:\nBase is water, 8% sugar, 0.1% citric acid, and proprietary peach flavour at 0.05%\n(§4) Samples were evaluated by expert tasters. Tasters were asked to describe the samples focusing on authentic taste, mouthfeel, fullness, salty-ness, salivation, umami, sweetness, juiciness, richness, long lastingness and fattiness.\nComparison in a Peach Drink\nBase is water, 8% sugar, 0.1% citric acid, proprietary peach flavour at 0.05%\n(§5) Samples were evaluated by expert tasters. Tasters were asked to describe the samples focusing on authentic taste, mouthfeel, fullness, salivation, salty-ness, umami, sweetness, juiciness, richness, long lastingness and fattiness."}, "[5]": {"test": "Tasting in mango juice drink, 1% clear mango juice", "settings": "8% sucrose, 0.1% citric acid, mango flavour 0.05%", "experimental": "Comparison in a Mango Juice Drink\nBase is 8% sucrose, 0.1% citric acid, 1% clear mango juice, and a proprietary mango flavour at 0.05%.\nas §4\nBase is water, 8% sucrose, 0.1% citric acid, 1% clear mango juice, proprietary mango flavour @ 0.05%\nas §5\nBase is water, 8% sucrose, 0.1% citric acid, 1% clear mango juice, proprietary mango flavour @0.05%\nSamples were evaluated by expert tasters. Tasters were asked to describe the samples focusing on authentic taste, mouthfeel, fullness, salty-ness, salivation, umami, sweetness, juiciness, richness, long lastingness and fattiness\nBase is 8% sucrose, 0.1% citric acid, 1% clear mango juice, proprietary mango flavour @ 0.05%\nSamples were evaluated by expert tasters. Tasters were asked to describe the samples focusing on authentic taste, mouth feel, fullness, salivation, salty-ness, umami, sweetness, juiciness, richness, long lastingness and fattiness\nBase is water, 8% sucrose, 0.1% citric acid, 1% clear mango juice, proprietary mango flavour @ 0.05%.\nTest in a Mango Juice Drink"}, "[6]": {"test": "Test on Tang", "settings": "0.5 ppm, orange flavoured Tang", "experimental": "In an orange flavoured Tang powdered soft drink (market product) sweetened with sucrose plus high intensity sweetener and containing citric acid, C18:2-gaba and C18:2-pro were tested.\nAll samples were evaluated by expert tasters. Tasters were asked to describe the samples focusing on authentic taste, mouthfeel & body, enhancement, richness, juiciness, long lastingness, salivation, sweetness, masking off notes of high intensity sweetener\nBase is Orange Flavoured Tang"}, "[7]": {"test": "Test on organic acids in a beverage", "settings": "1 ppm, water, 7% sucrose", "experimental": "14—Testing with Beverages Containing Organic Acids from 0.01% to 7%\nTest 18:2 Gaba on Organic Acids in a Beverage.\nIn a solution containing water, 7% sucrose by weight, and different organic acids, 18:2 gaba was added at 1 ppm. We observed taste effects on the acid perception upon addition of 18:2 gaba.\nBase is water, 7% Sucrose by weight, Tartaric acid at 0.121% by weight\nBase is water, 7% Sucrose by weight, Malic acid at 0.1081% by weight\nBase is water, 7% Sucrose by weight, Citric acid at 0.1% by weight\nBase is water, 7% Sucrose by weight, Fumaric acid at 0.0936% by weight"}, "[8]": {"test": "Test on mouthwash", "settings": "1 ppm, Paradontax alcohol free mouthwash", "experimental": "as §4\nBase: Paradontax alcohol free mouthwash."}, "[9]": {"test": "Test on menthol fondant", "settings": "2 ppm; fondant 65%, sugar syrup 34%, menthol flavour 1%", "experimental": "as §2\nTest on Menthol Fondant (1%1\nBase is Fondant 65%, sugar syrup 34% and a proprietary menthol flavour at 1%"}, "[10]": {"test": "Tasting in strawberry flavoured sugar sweetened yoghurt", "settings": "2 ppm, 1.5% fat yoghurt, 8% sucrose, strawberry flavour 0.015%"}, "[11]": {"test": "Tasting in low fat salad dressing", "settings": "0.5 ppm in low fat salad dressing (13.6% fat)", "experimental": "as §1\nlow fat salad dressing (13.6% Fat, 8%, carbohydrates (of which 5.3% sugar))\nas §2\nCalve Salad Dressing Low Fat (13.6% Fat):\nBase is Calve salad dressing (market product)\nas §3\nLow fat salad dressing (13.6% Fat)"}, "[12]": {"test": "Tasting on air expanded base", "settings": "3% fat, cheese seasoning", "experimental": "as §1\nAn air expanded base (Rice, wheat, Tapioca, potato, salt, sugar, modified starch), containing 3% fat and flavored with cheese seasoning containing salt, MSG, dairy, organic acids, sugars and flavor. The following compounds were added to the base at the indicated levels and the tasting results are reported: […]"}}, "note": "“Also recorded” adds a separate entry of the source."}
{"smiles": "CCCCC/C=C\\C/C=C\\CCCCCCCC(=O)NCCCC(=O)O", "note": "[C18:2-gaba]", "values": [{"measurement": "tasting result", "setting": "[1]; 0.5 ppm in 1% diluted salt reduced kikoman soy sauce (9% salt)", "result": "stronger, more umami, long lasting, richer"}, {"measurement": "tasting result", "setting": "[1]; 0.5 ppm in Kikkoman soy sauce low salt", "result": "much more salty, sweet and long lasting"}, {"measurement": "tasting result", "setting": "[1]; 0.5 ppm in pure salt reduced kikoman soy sauce (9% salt)", "result": "strong in body and mouthfeel, and more salty"}, {"measurement": "tasting result", "setting": "[2]", "result": "very nice mouthfeel effect, creamy as if coffee creamer is added, more sweet"}, {"measurement": "tasting result", "setting": "[3]", "result": "fatty skin-like, very thick juicy, authentic mango, long lasting mango taste, rich"}, {"measurement": "tasting result", "setting": "[4]", "result": "fruity peach, long lasting, juicy and fatty skin like very authentic"}, {"measurement": "tasting result", "setting": "[5]; 1 ppm", "result": "fatty skin-like, very juicy, authentic mango, much more mouthfeel, long lasting mango taste, mouthfeel is close to the full juice product"}, {"measurement": "tasting result", "setting": "[5]; 2 ppm", "result": "fatty skin like, juicy, authentic"}, {"measurement": "tasting result", "setting": "[6]", "result": "enhances sweet juicy orange notes, enhanced mouthfeel; also recorded: the off-notes of the high intensity sweetener were suppressed"}, {"measurement": "tasting result", "setting": "[7]; citric acid 0.1% by weight", "result": "decreased sharp acidic perception, full body mouth feel, higher higher mouthwatering, and an impression of the juicy notes of citrus fruit (orange, lemon)"}, {"measurement": "tasting result", "setting": "[7]; fumaric acid 0.0936% by weight", "result": "decreased sharp acidic perception, full body mouthfeel effects, higher sweet effects, and an impression of the full notes characteristic of sweet red & vanillic flavor types (vanilla, chocolate, raspberry, cherry, especially benzaldhyde)"}, {"measurement": "tasting result", "setting": "[7]; malic acid 0.1081% by weight", "result": "decreased sharp acidic perception, give fuller body, mouthfeel, higher mouthwatering, and an impression of the flesh and skin notes of fruit (apple)"}, {"measurement": "tasting result", "setting": "[7]; tartaric acid 0.121% by weight", "result": "decreased sharp acidic perception, full body mouthfeel, higher mouthwatering, more immediate (upfront hit), and an impression of the flesh of fruit (grape, apple, banana, pear-like)"}, {"measurement": "tasting result", "setting": "[8]", "result": "much less bitter, very sweet, smooth, less burning, round spicy, more minty and more cooling"}, {"measurement": "tasting result", "setting": "[9]", "result": "increased menthol impact, stronger cooling more sweet, long lasting, fresh"}, {"measurement": "tasting result", "setting": "[10]", "result": "very creamy and fresh strawberry; also recorded: creamy, fruity authentic strawberry, stronger strawberry, ripe, long lasting, juicy"}, {"measurement": "tasting result", "setting": "[11]", "result": "much fuller, creamy, rich, less acidic"}, {"measurement": "tasting result", "setting": "[11]; listed as C18:2 gaba", "result": "better mouthfeel that was impressively creamy"}, {"measurement": "tasting result", "setting": "[12]; 0.5 ppm on air expanded base", "result": "Increased dairy, cheese"}, {"measurement": "tasting result", "setting": "[12]; 1 ppm on air expanded base", "result": "Fatty full, cheesy, cheese crust, long lasting, cover base"}]}
